Key:
[1] = Decomposition point temperature by thermal gravimetric analysis; format: physicochemical
Protocol: The decomposition point temperature, or the temperature at which a material burns or decomposes, of the antifoulants must be above the processing temperature of the polymer. As determined by thermal gravimetric analysis, the decomposition point temperatures are 210° C. for capsaicin, 208° C. for Diuron, and 196° C. for Irgarol® 1051. The processing temperatures for melt extrusion are: for PMMA, 125° C.; for CBDO terephthalates (Cycloshield®), 130° C., and for polycarbonate, 190° C. It is expected that the antibiofoulants will be entrained in the polymer matrices. This entrainment is a key to the antifouling properties of the coverglasses or windows as it is the chemical nature of the antibiofoulants that provides the antifouling properties. In a typical matrix with entrained compounds there will always be some of these compounds exposed at the surface. Further, depending on the nature of the matrix, there will also be some diffusion rate of the compounds throughout the material.

[2] = Leaching rate of algaecides from PMMA substrates in water, by UV spectroscopy; format: physicochemical; conditions: for leach rate: deionized water, 35 days; for leaching into test tanks: after five months, up to the limit of the spectrometer
Protocol: The effective lifetimes of the antifoulant-containing coverglass materials were tested by studying the leaching rate of the algaecides from PMMA substrates in water. The UV absorption bands of Diuron (at 254 nm) and Irgarol® (at 234 nm) were used to detect their presence in aqueous solutions. To study the leaching rate, duplicate samples of the highest concentration of algaecide in PMMA (4% by weight for Diuron and 0.5% for Irgarol®; three samples each) were placed in separate closed containers of ultra-pure deionized water (18 MΩ purity). After 35 days, the concentration of algaecide that had leached into the water was determined by UV spectroscopy using a standard Beer-Lambert law relationship:
Where A is the absorbance of the compound, ε is the extinction coefficient associated with the compound, l is the cell path length, and C is the concentration of the compound. By establishing a suitable set of calibration curves, ε can be calculated from empirical results. A set of calibration curves for both Diuron and Irgarol® was established from 10^−3 M to 10^−7 M in aqueous solution. A Mineral Light Short Wave UV source was used to provide the input light, while the absorption of the samples was collected with the Ocean Optics S2000 previously discussed. Aqueous samples were placed into closed quartz cuvettes for analysis. For the UV measurements the Ocean Optics spectrometer was equipped with a UV transmissive fiber optic cable and spectra collected from 200 nm to 575 nm. Absorbance was measured at the previously mentioned values. A reference sample of ultra-pure deionized water was used for this study.
The study determined that the lower limit of the spectrometer was approximately 10^−5 M concentration for these algaecides. […] That compares favorably to the reported leach rate of 4.04 μg cm^−2 days^−1 reported for leaching of Irgarol® from marine paints.

[3] = test system: Chlorella capsulata; assay: Algae growth on antifoulant-loaded PMMA samples suspended 35 days in a salt water aquarium, read by optical transmission; format: cell-based; conditions: 35 days in algae tank; for effect on algae growth: antifoulant in solvent-cast PMMA sheet
Protocol: To test the antifoulant properties of the capsaicin-loaded PMMA and the mixtures of algaecides and polymers, a marine environment was established. Tests were performed in a salt water environment as opposed to a freshwater environment due to the aggressive growth of salt water plants and animals. The supposition is that if the antifoulant-doped coverglass works in a salt water environment, it will work in a fresh water environment. Using a standard 5-gallon aquarium, the salt water environment was set up using a commercially available sea salt solution (INSTANT OCEAN®). The solution was prepared to have a specific gravity of 1.020-1.023, a pH of ˜8.3, and a water temperature of about 27° C. A small aliquot of Chlorella capsulata (a known aggressive biofouling algae) was obtained from the UTEX Culture Collection of Algae and grown in the aquarium. Growth of the algae was further enhanced using an algae growth promoter (KENT PRO-CULTURE). After four weeks of growth, a dense algae growth was present in the aquarium.
PMMA/capsaicin samples of varying capsaicin concentration were prepared as previously described. The samples to be tested were cut into 25×25 mm squares and suspended in the aquarium. To ensure that no location-dependent effects were incorporated into the study, the samples were rotated every few days. The aquarium lights and air system were left running at all times. The samples were left in place for 35 days.
After 35 days, the samples were removed from the tank and rinsed carefully with deionized water to remove any adhering salts. The algae coated samples were then tested for their optical transmission properties using the Ocean Optics SD2000 UV-Vis spectrometer. To properly hold and test the samples, samples wetted with a couple of drops of deionized water were placed in between two standard 1″×3″ microscope slides. […] In fact, algae grew better on the samples with a higher concentration of capsaicin.
Algae growth studies similar to that conducted for the capsaicin-loaded PMMA were then conducted for the Diuron/PMMA and Irgarol®/PMMA samples. […]

[4] = leaching from marine paints, reported value; cited from earlier work

| SMILES | decomposition point temperature [1] | leach rate ([2]; 4% by weight Diuron in PMMA, no absorption at 254 nm) | leaching into test tanks [2] | effect on algae growth [3] | loss of visible transmission after algae growth ([3]; PMMA/capsaicin samples of varying capsaicin concentration) | reported leach rate from marine paints [4] | leach rate ([2]; 0.5% Irgarol in PMMA, no absorption at 234 nm) |
| --- | --- | --- | --- | --- | --- | --- | --- |
| CN(C)C(=O)Nc1ccc(Cl)c(Cl)c1 [Diuron, 3-(3,4-dichlorophenyl)-1,1-dimethylurea] | 208 °C | below 1.67 μg cm^−2 days^−1 | no evidence was found | no sign of algae growth |  |  |  |
| COc1cc(CNC(=O)CCCC/C=C/C(C)C)ccc1O [capsaicin] | 210 °C |  |  | no effect in decreasing algae growth | the greater the concentration of capsaicin, the greater was the loss of transmission |  |  |
| CSc1nc(NC2CC2)nc(NC(C)(C)C)n1 [Irgarol®, N-(tert-butyl)-N′-cyclopropyl-6-(methylthio)-1,3,5-triazine-2,4-diamine] | 196 °C |  | no evidence was found |  |  | 4.04 μg cm^−2 days^−1 | < 1.81 μg cm^−2 day^−1 |

Source: patent US20080194732A1, “Optically transparent polymer with antibiofouling properties” (priority 2007, published 2008)
